# US8828680B2, “Combined rapid susceptibility assay and microorganism identification system” (Siemens Healthcare Diagnostics Inc., priority 1999, dated 2014)
# Experiments:
# Format in all cases: cell-based
# [1] = test system: C. freundii 87; test: New AST method using bichromatic absorbance between 405 and 620 nm
# Text: (§1) The goals of the new AST method are to achieve higher precision, greater accuracy and increased reliability by using (1) quantitative spectral information derived from bichromatic measurements, (2) a dynamic breakpoint for individual drug wells based on their initial condition, and (3) a susceptibility index for determining susceptibility. The new AST method includes the following processes.
# (§2) Bichromatic absorbance is the difference between the primary wavelength with significant turbidity and the secondary wavelength with little turbidity. For Gram positive organisms, the wavelengths are 505 and 620 for all drugs.
# (§3) For Gram negative organisms, the wavelengths are 405 and 620 nm for most drugs except Nitrofurantoin and tetracycline. The wavelengths for Nitrofurantoin and tetracycline are 505 and 620 nm.
# (§4) The susceptibility index (SI) is the ratio of the initial and final absorbance after correction for system drift. The susceptibility indexes are calculated for each drug well and the growth well (positive control well). The following formula (equation 1) is used to calculate the susceptibility index:
# (§5) where • Di=Initial bichromatic absorbance from drug well • Df=Final bichromatic absorbance from drug well • Ci=Initial bichromatic absorbance from control ([…]) well • Cf=Final bichromatic absorbance from control (negative control) well
# (§6) Compare susceptibility indices from drug wells to determine growth/no growth. A value of 1.05 is presently preferred for use as a cutoff to determine growth. The value may be adjusted as assay procedures undergo further refinement but is nonetheless expected to retain a value approaching 1.
# (§7) In the current conventional MIC methods used in many art-recognized systems, the MIC is the first no growth well after the last growth well in the dilution series. Difficulties in interpretation occur, however, when there are “no growth” wells interspersed amongst “growth” wells in the same series. Conventional methods treat these no growth wells as “skipped” wells and the MIC is adjusted according to the number of skipped wells. In the methods and systems of the invention, however, an algorithm is applied which more accurately identifies which wells are true skipped wells. In addition, the algorithm is applied to determine which wells are contaminated. Use of the new system increases the accuracy of the read substantially.
# [2] = test system: C. freundii 87; test: Manual read MIC; settings: Citrobacter freundii; C. freundii 87, manual read
# Text: (§8) (see, e.g., Dried Gram Negative Procedural Manual, supra, at page 1 (and references cited therein).) Appropriate specimens should be collected, transported, and placed on primary isolation media according to procedures recommended in the Manual of Clinical Microbiology (Murray, et al. (eds.), Manual of Clinical Microbiology, 6th ed., American Society for Microbiology, Washington, D.C. (1995)). Subsequently, a standard, automated assay may thus be conducted essentially as follows.
# (§9) The panels may be read manually (e.g. using a MICROSCAN® Microdilution Viewer, Dade MicroScan Inc., West Sacramento, Calif.) and results recorded on an appropriate worksheet. The panels may also—or alternatively—be read instrumentally, e.g., using a TOUCHSCAN®-SR, AUTOSCAN®-4, or WALKAWAY® system (Dade MicroScan Inc., West Sacramento, Calif.). Refer to the appropriate operator's manual for reading panels using instrumentation.
# [3] = test system: C. freundii 87; test: Conventional AST method using absorbance at 620 nm; settings: Citrobacter freundii, 3 hrs and 16 hrs, breakpoint 1800
# Protocol: In the conventional method, the analyte is turbidity and its measurement at 620 nm wavelength is used to quantify growth. The current conventional AST method determines growth by comparing the calculated processed value, which is the 620 nm absorbance difference between two (2) hours and forty-five minutes and 16 or 18 hours against a breakpoint. This breakpoint was determined by testing 100-200 isolates and reading results manually or via instruments and correlating the reads of those isolates to their processed values. […] Subsequently, a standard, automated assay may thus be conducted essentially as follows.
# [4] = test system: C. freundii 104; test: Conventional AST method using absorbance at 620 nm; settings: Citrobacter freundii, 4 hrs and 16 hrs, breakpoint 400
# Protocol: The monochromatic method of spectral analysis involves selecting a single wavelength that contains a unique spectral feature for the analyte of interest. In the conventional method, the analyte is turbidity and its measurement at 620 nm wavelength is used to quantify growth. The current conventional AST method determines growth by comparing the calculated processed value, which is the 620 nm absorbance difference between two (2) hours and forty-five minutes and 16 or 18 hours against a breakpoint. This breakpoint was determined by testing 100-200 isolates and reading results manually or via instruments and correlating the reads of those isolates to their processed values. This approach has limited capability because the processed value is not corrected for system-dependent variations and the breakpoint is not adaptable to system change. […] (see, e.g., Dried Gram Negative Procedural Manual, supra, at page 1 (and references cited therein).) Appropriate specimens should be collected, transported, and placed on primary isolation media according to procedures recommended in the Manual of Clinical Microbiology (Murray, et al. (eds.), Manual of Clinical Microbiology, 6th ed., American Society for Microbiology, Washington, D.C. (1995)). Subsequently, a standard, automated assay may thus be conducted essentially as follows.
# [5] = test system: C. freundii 104; test: New AST method using bichromatic absorbance between 405 and 620 nm; settings: for Susceptibility Index (D6 − C6)/(D3 − C3): 6 hrs vs 3 hrs
# Text: as §1, §2, §3, §4, §5, §6, §7
# [6] = test system: C. freundii 104; test: Manual read MIC; settings: Citrobacter freundii; C. freundii 104, manual read
# Text: as §8, §9
# [7] = Citrobacter freundii, bichromatic 405-620 nm, 3 hrs and 6 hrs
SMILES,"MIC [1, 7] [µg/mL]","Susceptibility Index (D6 − C6)/(D3 − C3) ([1]; drug level 256 μg/mL, 6 hrs vs 3 hrs)",MIC [2] [µg/mL],MIC [3] [µg/mL],MIC [4] [µg/mL],"MIC [5, 7] [µg/mL]",Susceptibility Index (D6 − C6)/(D3 − C3) ([5]; drug level 0.5 μg/mL),Susceptibility Index (D6 − C6)/(D3 − C3) ([5]; drug level 1 μg/mL),Susceptibility Index (D6 − C6)/(D3 − C3) ([5]; drug level 2 μg/mL),Susceptibility Index (D6 − C6)/(D3 − C3) ([5]; drug level 4 μg/mL),Susceptibility Index (D6 − C6)/(D3 − C3) ([5]; drug level 8 μg/mL),MIC [6] [µg/mL]
Cc1cc(NS(=O)(=O)c2ccc(N)cc2)no1 [Sulfamethoxazole],> 256,1639/1064 = 1.5,> 256,< 256,,,,,,,,
NC[C@H]1O[C@H](O[C@H]2[C@H](O)[C@@H](O[C@H]3O[C@H](CO)[C@@H](O)[C@H](N)[C@H]3O)[C@H](N)C[C@@H]2N)[C@H](N)C[C@@H]1O [Tobramycin],,,,,2,2,3696/1205 = 3.0,1898/1201 = 1.6,1145/1180 = 1.0,1096/1136 = 1.0,1196/1237 = 1.0,2
